In US11497759B2, “Repurposcins: targeted inhibitors of mitochondrial biogenesis for eradicating cancer stem cells” (LUNELLA BIOTECH, INC., priority 2017, dated 2022):

System: MCF-7 breast CSCs
Test: Inhibition of mammosphere-forming activity of MCF-7 breast CSCs
Format: cell-based, human
Details: treated for 5 days in mammosphere media, read-out: IC-50 for blocking CSC propagation (mammosphere-forming activity)
Excerpt: The black bars show 2,4-dichlorobenzyl-TPP; the inclined bars show 1-naphthylmethyl-TPP; the dotted bars show 3-methylbenzyl-TPP; the unshaded bars show 2-chlorobenzyl-TPP; and the horizontal lined bars show 2-butene-1,4-bis-TPP. […] Data are represented as mean+/−SEM.

IC50: < 500 nM
Structure (SMILES): C(=CC[P+](c1ccccc1)(c1ccccc1)c1ccccc1)C[P+](c1ccccc1)(c1ccccc1)c1ccccc1 [2-butene-1,4-bis-TPP]
